{
  "source": "ChEMBL document CHEMBL5608113",
  "about": "“Targeting of CAF-induced therapy resistance in CRC organoid-stroma co-cultures” (2024)",
  "data": [
    {"test_system": "Colon cancer organoid", "assay": "(§1) Targeting of F14 CAF-induced therapy resistance in O14 CRC organoid-stroma co-culture. Cell viability is reported with Gefitinib.", "format": "functional, Homo sapiens", "conditions": "Homo sapiens, Concentration 1 uM; read-out: Cell Viability", "units": {"viability at 1 µM": "%"}, "values": [
      {"smiles": "CCCOc1ccc([C@H]2[C@H](C(=O)O)[C@@H](c3ccc4c(c3)OCO4)CN2CC(=O)Nc2c(CC)cccc2CC)cc1", "note": "[A-192621]", "viability at 1 µM": 27.4},
      {"smiles": "CC(C)CC(=O)N1CCc2nc(-c3ccc(Br)cc3)nc(N(C)Cc3ccccc3)c2C1", "note": "[THPP-1-NC]", "viability at 1 µM": 39.6},
      {"smiles": "CS(=O)(=O)c1cc(C2(NC(=O)c3cncc4c3cnn4-c3ccc(F)cc3)CC2)ccn1", "note": "[BI 639667]", "viability at 1 µM": 39},
      {"smiles": "CS(=O)(=O)N1CCCC(NC(=O)[C@H](CCC2CCCCC2)NC(=O)c2ccc(CNC(=O)c3cnc4ccccn34)cc2)C1", "note": "(stereo not given in full) [SR-302]", "viability at 1 µM": 37.1},
      {"smiles": "COc1cc(N[C@@H]2CCCC[C@]2(O)C(F)(F)F)ccc1F", "note": "[BAY-9897]", "viability at 1 µM": 40.2},
      {"smiles": "Cc1cc(C)c(-n2ccn3nc(-c4cccnc4)cc23)cc1NC(=O)c1cc(C#N)cc(S(F)(F)(F)(F)F)c1", "note": "[BAY-826]", "viability at 1 µM": 58.7},
      {"smiles": "CN1C(=O)[C@@H](N2CCc3c(nn(Cc4ccccc4)c3Br)C2=O)COc2ccccc21", "note": "[TP-030-2]", "viability at 1 µM": 31.6}
    ]},
    {"test_system": "Colon cancer organoid", "assay": "as §1", "format": "functional, Homo sapiens", "conditions": "Homo sapiens, Concentration 10 uM; read-out: Cell Viability", "units": {"viability at 10 µM": "%"}, "values": [
      {"smiles": "CC(C)(O)[C@H](F)CN1Cc2cc(NC(=O)c3cnn4cccnc34)c(N3CCOCC3)cc2C1=O", "viability at 10 µM": 23.3},
      {"smiles": "Cc1c(N2CCCC2)nc2ccc(Br)cc2c1C(=O)NC[C@H](CCC(=O)O)c1ccccc1Cl", "note": "[BAY-6672]", "viability at 10 µM": 37.9}
    ]},
    {"test_system": "Colon cancer organoid", "assay": "(§2) Targeting of F14 CAF-induced therapy resistance in O23 CRC organoid-stroma co-culture. Cell viability is reported without Gefitinib.", "format": "functional, Homo sapiens", "conditions": "Homo sapiens, Concentration 1 uM; read-out: Cell Viability", "units": {"viability at 1 µM": "%"}, "values": [
      {"smiles": "CCCOc1ccc([C@H]2[C@H](C(=O)O)[C@@H](c3ccc4c(c3)OCO4)CN2CC(=O)Nc2c(CC)cccc2CC)cc1", "note": "[A-192621]", "viability at 1 µM": 112},
      {"smiles": "CC(C)CC(=O)N1CCc2nc(-c3ccc(Br)cc3)nc(N(C)Cc3ccccc3)c2C1", "note": "[THPP-1-NC]", "viability at 1 µM": 127},
      {"smiles": "CS(=O)(=O)c1cc(C2(NC(=O)c3cncc4c3cnn4-c3ccc(F)cc3)CC2)ccn1", "note": "[BI 639667]", "viability at 1 µM": 135},
      {"smiles": "CS(=O)(=O)N1CCCC(NC(=O)[C@H](CCC2CCCCC2)NC(=O)c2ccc(CNC(=O)c3cnc4ccccn34)cc2)C1", "note": "(stereo not given in full) [SR-302]", "viability at 1 µM": 126},
      {"smiles": "COc1cc(N[C@@H]2CCCC[C@]2(O)C(F)(F)F)ccc1F", "note": "[BAY-9897]", "viability at 1 µM": 81.6},
      {"smiles": "Cc1cc(C)c(-n2ccn3nc(-c4cccnc4)cc23)cc1NC(=O)c1cc(C#N)cc(S(F)(F)(F)(F)F)c1", "note": "[BAY-826]", "viability at 1 µM": 102},
      {"smiles": "CN1C(=O)[C@@H](N2CCc3c(nn(Cc4ccccc4)c3Br)C2=O)COc2ccccc21", "note": "[TP-030-2]", "viability at 1 µM": 165}
    ]},
    {"test_system": "Colon cancer organoid", "assay": "as §2", "format": "functional, Homo sapiens", "conditions": "Homo sapiens, Concentration 10 uM; read-out: Cell Viability", "units": {"viability at 10 µM": "%"}, "values": [
      {"smiles": "CC(C)(O)[C@H](F)CN1Cc2cc(NC(=O)c3cnn4cccnc34)c(N3CCOCC3)cc2C1=O", "viability at 10 µM": 85.8},
      {"smiles": "Cc1c(N2CCCC2)nc2ccc(Br)cc2c1C(=O)NC[C@H](CCC(=O)O)c1ccccc1Cl", "note": "[BAY-6672]", "viability at 10 µM": 81.2}
    ]},
    {"test_system": "Colon cancer organoid", "assay": "(§3) Targeting of F14 CAF-induced therapy resistance in O23 CRC organoid-stroma co-culture. Cell viability is reported with Gefitinib.", "format": "functional, Homo sapiens", "conditions": "Homo sapiens, Concentration 1 uM; read-out: Cell Viability", "units": {"viability at 1 µM": "%"}, "values": [
      {"smiles": "CCCOc1ccc([C@H]2[C@H](C(=O)O)[C@@H](c3ccc4c(c3)OCO4)CN2CC(=O)Nc2c(CC)cccc2CC)cc1", "note": "[A-192621]", "viability at 1 µM": 48.1},
      {"smiles": "CC(C)CC(=O)N1CCc2nc(-c3ccc(Br)cc3)nc(N(C)Cc3ccccc3)c2C1", "note": "[THPP-1-NC]", "viability at 1 µM": 47.3},
      {"smiles": "CS(=O)(=O)c1cc(C2(NC(=O)c3cncc4c3cnn4-c3ccc(F)cc3)CC2)ccn1", "note": "[BI 639667]", "viability at 1 µM": 107},
      {"smiles": "CS(=O)(=O)N1CCCC(NC(=O)[C@H](CCC2CCCCC2)NC(=O)c2ccc(CNC(=O)c3cnc4ccccn34)cc2)C1", "note": "(stereo not given in full) [SR-302]", "viability at 1 µM": 69.8},
      {"smiles": "COc1cc(N[C@@H]2CCCC[C@]2(O)C(F)(F)F)ccc1F", "note": "[BAY-9897]", "viability at 1 µM": 66.7},
      {"smiles": "Cc1cc(C)c(-n2ccn3nc(-c4cccnc4)cc23)cc1NC(=O)c1cc(C#N)cc(S(F)(F)(F)(F)F)c1", "note": "[BAY-826]", "viability at 1 µM": 58.2},
      {"smiles": "CN1C(=O)[C@@H](N2CCc3c(nn(Cc4ccccc4)c3Br)C2=O)COc2ccccc21", "note": "[TP-030-2]", "viability at 1 µM": 83.4}
    ]},
    {"test_system": "Colon cancer organoid", "assay": "as §3", "format": "functional, Homo sapiens", "conditions": "Homo sapiens, Concentration 10 uM; read-out: Cell Viability", "units": {"viability at 10 µM": "%"}, "values": [
      {"smiles": "CC(C)(O)[C@H](F)CN1Cc2cc(NC(=O)c3cnn4cccnc34)c(N3CCOCC3)cc2C1=O", "viability at 10 µM": 38.7},
      {"smiles": "Cc1c(N2CCCC2)nc2ccc(Br)cc2c1C(=O)NC[C@H](CCC(=O)O)c1ccccc1Cl", "note": "[BAY-6672]", "viability at 10 µM": 42.2}
    ]},
    {"test_system": "Colon cancer organoid", "assay": "(§4) Targeting of F14 CAF-induced therapy resistance in O23 CRC organoid-stroma co-culture. Cell viability is reported with SN-38.", "format": "functional, Homo sapiens", "conditions": "Homo sapiens, Concentration 1 uM; read-out: Cell Viability", "units": {"viability at 1 µM": "%"}, "values": [
      {"smiles": "CCCOc1ccc([C@H]2[C@H](C(=O)O)[C@@H](c3ccc4c(c3)OCO4)CN2CC(=O)Nc2c(CC)cccc2CC)cc1", "note": "[A-192621]", "viability at 1 µM": 50},
      {"smiles": "CC(C)CC(=O)N1CCc2nc(-c3ccc(Br)cc3)nc(N(C)Cc3ccccc3)c2C1", "note": "[THPP-1-NC]", "viability at 1 µM": 70.5},
      {"smiles": "CS(=O)(=O)c1cc(C2(NC(=O)c3cncc4c3cnn4-c3ccc(F)cc3)CC2)ccn1", "note": "[BI 639667]", "viability at 1 µM": 94.7},
      {"smiles": "CS(=O)(=O)N1CCCC(NC(=O)[C@H](CCC2CCCCC2)NC(=O)c2ccc(CNC(=O)c3cnc4ccccn34)cc2)C1", "note": "(stereo not given in full) [SR-302]", "viability at 1 µM": 54.1},
      {"smiles": "COc1cc(N[C@@H]2CCCC[C@]2(O)C(F)(F)F)ccc1F", "note": "[BAY-9897]", "viability at 1 µM": 78.5},
      {"smiles": "Cc1cc(C)c(-n2ccn3nc(-c4cccnc4)cc23)cc1NC(=O)c1cc(C#N)cc(S(F)(F)(F)(F)F)c1", "note": "[BAY-826]", "viability at 1 µM": 64.2},
      {"smiles": "CN1C(=O)[C@@H](N2CCc3c(nn(Cc4ccccc4)c3Br)C2=O)COc2ccccc21", "note": "[TP-030-2]", "viability at 1 µM": 63.7}
    ]},
    {"test_system": "Colon cancer organoid", "assay": "as §4", "format": "functional, Homo sapiens", "conditions": "Homo sapiens, Concentration 10 uM; read-out: Cell Viability", "units": {"viability at 10 µM": "%"}, "values": [
      {"smiles": "CC(C)(O)[C@H](F)CN1Cc2cc(NC(=O)c3cnn4cccnc34)c(N3CCOCC3)cc2C1=O", "viability at 10 µM": 51.5},
      {"smiles": "Cc1c(N2CCCC2)nc2ccc(Br)cc2c1C(=O)NC[C@H](CCC(=O)O)c1ccccc1Cl", "note": "[BAY-6672]", "viability at 10 µM": 58.4}
    ]},
    {"test_system": "Colon cancer organoid", "assay": "(§5) Targeting of F14 CAF-induced therapy resistance in O14 CRC organoid-stroma co-culture. Cell viability is reported without Gefitinib.", "format": "functional, Homo sapiens", "conditions": "Homo sapiens, Concentration 1 uM; read-out: Cell Viability", "units": {"viability at 1 µM": "%"}, "values": [
      {"smiles": "CCCOc1ccc([C@H]2[C@H](C(=O)O)[C@@H](c3ccc4c(c3)OCO4)CN2CC(=O)Nc2c(CC)cccc2CC)cc1", "note": "[A-192621]", "viability at 1 µM": 117},
      {"smiles": "CC(C)CC(=O)N1CCc2nc(-c3ccc(Br)cc3)nc(N(C)Cc3ccccc3)c2C1", "note": "[THPP-1-NC]", "viability at 1 µM": 95.7},
      {"smiles": "CS(=O)(=O)c1cc(C2(NC(=O)c3cncc4c3cnn4-c3ccc(F)cc3)CC2)ccn1", "note": "[BI 639667]", "viability at 1 µM": 126},
      {"smiles": "CS(=O)(=O)N1CCCC(NC(=O)[C@H](CCC2CCCCC2)NC(=O)c2ccc(CNC(=O)c3cnc4ccccn34)cc2)C1", "note": "(stereo not given in full) [SR-302]", "viability at 1 µM": 101},
      {"smiles": "COc1cc(N[C@@H]2CCCC[C@]2(O)C(F)(F)F)ccc1F", "note": "[BAY-9897]", "viability at 1 µM": 86.4},
      {"smiles": "Cc1cc(C)c(-n2ccn3nc(-c4cccnc4)cc23)cc1NC(=O)c1cc(C#N)cc(S(F)(F)(F)(F)F)c1", "note": "[BAY-826]", "viability at 1 µM": 145},
      {"smiles": "CN1C(=O)[C@@H](N2CCc3c(nn(Cc4ccccc4)c3Br)C2=O)COc2ccccc21", "note": "[TP-030-2]", "viability at 1 µM": 113}
    ]},
    {"test_system": "Colon cancer organoid", "assay": "as §5", "format": "functional, Homo sapiens", "conditions": "Homo sapiens, Concentration 10 uM; read-out: Cell Viability", "units": {"viability at 10 µM": "%"}, "values": [
      {"smiles": "CC(C)(O)[C@H](F)CN1Cc2cc(NC(=O)c3cnn4cccnc34)c(N3CCOCC3)cc2C1=O", "viability at 10 µM": 129},
      {"smiles": "Cc1c(N2CCCC2)nc2ccc(Br)cc2c1C(=O)NC[C@H](CCC(=O)O)c1ccccc1Cl", "note": "[BAY-6672]", "viability at 10 µM": 138}
    ]}
  ]
}
